Experiments:
purple nutsedge [1] = assay: Test G surface spray; format: in vivo, Cyperus rotundus; conditions: high OM
Excerpt: (§1) Purple nutsedge tubers (Cyperus rotundus, L.) were planted about 2 cm deep in Fallsington silt loam (about 1% organic matter from Delaware) and in Flanagan loam (about 4% organic matter) from Illinois. Five tubers were planted in each 10 cm diameter plastic pot. Treatments recorded in Table XVII were applied in three different ways, i.e., soil surface spray, tuber/soil spray and soil incorporated. In surface sprays, the material was sprayed on the firmed soil surface after planting, but before nutsedge emergence. In tuber/soil sprays, the material was sprayed on exposed tubers and subtending soil before the tubers were covered with untreated soil. Soil incorporated treatments were mixed in the covering soil.
(§2) Immediately after treating, the treated pots were misted with about 0.3 cm of water over a 90 minute period and placed in the greenhouse.

purple nutsedge [2] = assay: Test G soil incorporated; format: in vivo, Cyperus rotundus; conditions: .032 kg/ha, low OM
Excerpt: as §1, §2

COC(=O)c1ccccc1S(=O)(=O)NC(=O)Nc1nc(OC)cc(OC)n1 [drawing 607]
response rating after 4 weeks (purple nutsedge [1]; .008 kg/ha): 0
response rating after 4 weeks (purple nutsedge [1]; .032 kg/ha): 10C
response rating after 4 weeks (purple nutsedge [2]): 10C
